Experimental findings from US8637681B2, “Pyrrolyl substituted dihydroindol-2-one derivatives, preparation methods and uses thereof” (Qilu Pharmaceutical Co., Ltd., priority 2010, dated 2014) are described below.

Series [1] has as its system arterial ring angiogenesis in rats. In words: Inhibitory actions on arterial ring angiogenesis in rats. In kind it is cell-based. The settings on record: Rattus norvegicus, area covered by micrangiums vs control well, read-out: Inhibitory rate (%); for inhibition at 0.2 µg/mL: 0.2 μg/ml; for inhibition at 1 µg/mL: 1 μg/ml; for inhibition at 5 µg/mL: 5 μg/ml. Here is the method:
This experiment was conducted by referring to the method described by R. F. Nicosia et al (Nicosia, R. F., et al. Am J Pathol., 1997, 151, 1379-1386). Rats were executed by cervical dislocation. The thoracic aorta was carefully separated, and placed in a container with physiological saline. The excess tissues were carefully cut off. The blood vessels were cut with a pair of ophthalmic scissors to form 1 mm thick vascular ring slices. To a pre-cooled 96-well cell culture plate, one separated vascular ring was placed in the center of each well. 70 μl of pre-molten Matrigel was carefully added to cover the vascular ring, which was incubated at 37° C. for 1 h so as to solidify it. […] The sample was placed in incubator for conventional culture, and each compound was tested at least in two repeated wells, and each test was repeated twice. […] The fresh culture medium was replaced every 3 days, and the drug was changed at the same time. The survival status of vascular rings was observed under microscope, and pictures were taken at the same time. Image Pro Plus software was used to calculate the area covered by micrangiums. The average inhibition rate was calculated by using the formula: inhibition rate (%)=(area of control well−area of drug well)/area of control well×100%.

The nature of series [2]: Cytotoxicity test (SRB), A549. In kind it is cell-based. The settings on record: human, A549 non-small cell lung cancer cells. The protocol:
(§1) Cytotoxicity of the compounds of the present invention was tested with human non-small cell lung cancer cells A549, human cervical cancer Hela cells, human skin cancer cells A431. The test was performed by referring to the method described by Rusnak et al (Rusnak D. W., et al., Cell Prolif., 2007, 40, 580-94).
(§2) In Dulbecco's Modified Eagle Medium (DMEM) comprising 10% fetal bovine serum, 2 mM glutamine and non-essential amino acids, cells were cultured at 37° C. in 5% CO2 cell incubator. Trypsin/ethylenediamine tetraacetic acid (EDTA) were used to harvest cells in cell culture bottle. The cells were added to a 96-well cell culture plate, 4000/well (0.1 ml medium), adhering wall overnight, 0.1 ml of the diluted solution of the compounds to be tested was added, the final concentration of DMSO was 0.25%. The cell culture plate was incubated at 37° C., 5% CO2 conditions for 72 h. The change of cellular morphology was observed under microscope, and then 50 μl of 50% (mass/volume) trichloroacetic acid (TCA) was added to each well to fix cells. The final concentration of TCA was 10%. It stood for 5 min, than was placed in 4° C. refrigerator for 1 h, the wells of the culture plate were washed with deionized water for 5 times to remove TCA, drained, dried in air until no wet trace was observed. 100 μl of 0.4% (mass/volume) SRB was added to each well, stood at room temperature for 10 min. The liquid in each well was discarded, and then the wells were washed with 1% acetic acid for 5 times, dried in air, extracted with 150 μl of 10 mM Tris base (trihydroxymethylaminomethane, pH 10.5). The absorption at a wavelength of 540 nm was measured. The IC50 (μM) of the compound was calculated using Logit method.

Series [3] is described as follows: Cytotoxicity test (SRB), Hela. In kind it is cell-based. The settings on record: human, Hela cervical cancer cells. The protocol:
Cytotoxicity of the compounds of the present invention was tested with human non-small cell lung cancer cells A549, human cervical cancer Hela cells, human skin cancer cells A431. The test was performed by referring to the method described by Rusnak et al (Rusnak D. W., et al., Cell Prolif., 2007, 40, 580-94). […] Trypsin/ethylenediamine tetraacetic acid (EDTA) were used to harvest cells in cell culture bottle. The cells were added to a 96-well cell culture plate, 4000/well (0.1 ml medium), adhering wall overnight, 0.1 ml of the diluted solution of the compounds to be tested was added, the final concentration of DMSO was 0.25%. The cell culture plate was incubated at 37° C., 5% CO2 conditions for 72 h. […] The absorption at a wavelength of 540 nm was measured. The IC50 (μM) of the compound was calculated using Logit method.

Series [4] can be described thus: Cytotoxicity test (SRB), A431. Format: cell-based. The settings on record: human, A431 skin cancer cells. The protocol: as §1, §2
Series [5] concerns human colon cancer HT 29 transplanted tumor. In words: Nude mice transplanted tumor test. Details: key to d21 Vave ± SD (average tumor volume): tumor volume TV = ½×a×b² (a, b = major, minor diameter), in mm³. The settings on record: for Dead animal number: dead/total animals; for Activity of inhibiting HT-29 transplanted tumor in vivo (in words): 80 mg/kg, compared with positive control Sunitinib; for inhibition in vivo at 80 mg/kg: Mus musculus, HT-29, po, 504 h, (1−T/C)×100%, read-out: Tumor inhibition rate d21 (%); for inhibition in vivo at 80 mg/kg / d21 Wave ± SD (average bodyweight of nude mice) / d21 Vave ± SD (average tumor volume) / d21 RTV ± SD (relative tumor volume): d21; for d0 Wave ± SD (average bodyweight of nude mice): d0, at grouping before administration (baseline); for d21 Vave ± SD (average tumor volume): HT 29 in nude mice; for d21 RTV ± SD (relative tumor volume): RTV=Vt/V0. In kind it is in vivo, female Balb/cA nude mice. The protocol: The nude mice transplanted tumor test used female Balb/cA nude mice, and tumor strains were human colon cancer HT 29 strains.
Under sterile condition, eugonic tumor tissues stage were cut into pieces of about 1.5 mm^3, and inoculated at right axillary fossa of the nude mice. The transplanted tumor diameter was measured by vernier caliper, and the animals were randomly grouped after the tumors grew to about 120 mm^3. The positive control group and the compounds group in a dosage of 80 mg/kg were administered intragastrically each day for consecutive 20 days. The negative control group was given equivalent amount of injection water containing 0.1% Tween 80. Tumor diameters and the bodyweight of mice were measured 2-3 times every week. The evaluation indexes observed in the test include relative tumor proliferation rate, bodyweight and general states. The formulation for calculating tumor volume (TV) is: TV=½×a×b^2, wherein a, b represent major diameter and minor diameter of tumor; Relative tumor volume (RTV) was calculated according the results of measurement by the following formula: RTV=Vt/V0, wherein V0 is tumor volume measured when dividing groups for administration, and Vt is tumor volume measured after each administration.

Where [6] appears, read: 80 mg/kg intragastrically each day for 20 days.
Setting [7] is: 80 mg/kg intragastrically each day for 20 days, in mm³ (unit assumed).

Values joined by “and” are separate entries in the source; they are usually repeats but may differ in a detail not shown here. Equal values may be shown once.

With `CCN(CC)CC(=O)Nc1c(C)[nH]c(/C=C2\C(=O)Nc3ccc(Cl)cc32)c1C` [Compound 21, N-{5-[5-chloro-2-oxo-1,2-dihydro-indol-(3Z)-ylidenemethyl]-2,4-dimethyl-1H-pyrrol-3-yl}-2-(N,N-diethylamino)acetamide], in series [1], the inhibition at 0.2 µg/mL was determined as 95%, the inhibition at 1 µg/mL amounted to 100% and the inhibition at 5 µg/mL was 100%. Besides, the IC50 (in general, the concentration at which inhibition is half-maximal) at 72 h in series [2] is > 30 µM. Further, the IC50 at 72 h in series [3] is > 30 µM. The IC50 at 72 h in series [4] was > 30 µM. Also, in series [5] (setting [6]), the Dead animal number is 0/6, the inhibition in vivo at 80 mg/kg is 89%, the “d21 Wave ± SD (average bodyweight of nude mice)” value (“d21 Wave ± SD” for short) is 19.3 ± 0.76 and the “d21 RTV ± SD (relative tumor volume)” value came to 0.79 ± 0.63. For the same compound, in series [5], the “Activity of inhibiting HT-29 transplanted tumor in vivo (in words)” value is on record as “inhibitory activity comparable to the positive control Sunitinib” and the “d0 Wave ± SD (average bodyweight of nude mice)” value (shortened to “d0 Wave ± SD”) was determined as 18.9 ± 0.47. For the same compound, the “d21 Vave ± SD (average tumor volume)” value in series [5] (setting [7]) stood at 94.3 ± 37.2.

Regarding `Cc1[nH]c(/C=C2\C(=O)Nc3ccc(F)cc32)c(C)c1NC(=O)CCN1CCN(C)CC1` [Compound 11, N-{5-[5-fluoro-2-oxo-1,2-dihydro-indol-(3Z)-ylidenemethyl]-2,4-dimethyl-1H-pyrrol-3-yl}-3-(4-methylpiperazin-1-yl)propionamide], in series [1], the inhibition at 0.2 µg/mL was 99%, the inhibition at 1 µg/mL is 100% and the inhibition at 5 µg/mL was determined as 100%. Moreover, the IC50 at 72 h in series [2] was > 30 µM. Also, the IC50 at 72 h in series [3] is > 30 µM. The IC50 at 72 h in series [4] is > 30 µM. In series [5] (setting [6]), the Dead animal number is recorded as 0/6, the inhibition in vivo at 80 mg/kg came out at 88.5%, the “d21 Wave ± SD” value was found to be 20.5 ± 0.49 and the “d21 RTV ± SD (relative tumor volume)” value is listed as 0.83 ± 0.52. Further, in series [5], the “Activity of inhibiting HT-29 transplanted tumor in vivo (in words)” value is recorded as “inhibitory activity comparable to the positive control Sunitinib” and the “d0 Wave ± SD” value was found to be 18.5 ± 0.55. The “d21 Vave ± SD (average tumor volume)” value in series [5] (setting [7]) was 96.7 ± 35.4.

In the case of `CCN(CC)CCNC(=O)c1c(C)[nH]c(/C=C2\C(=O)Nc3ccc(F)cc32)c1C` [Sunitinib, reference compound], in series [1], the inhibition at 0.2 µg/mL stood at 95%, the inhibition at 1 µg/mL is 100% and the inhibition at 5 µg/mL was found to be 100%. It took 11.5 µM to reach half-maximal inhibition in series [2] (IC50 at 72 h). This compound came in with an IC50 at 72 h in series [3] of 2.03 µM. For the same compound, the IC50 at 72 h in series [4] was determined as 1.93 µM. In series [5] (setting [6]), the “States of mice / toxicity signs (in words)” value was “yellowing skin and blood in excrement”; the Dead animal number result was “one tumor-bearing mouse died and 1/6”; the inhibition in vivo at 80 mg/kg was 88.5%. Further, the “d0 Wave ± SD” value in series [5] came to 19.4 ± 0.44. Further, the “d21 Vave ± SD (average tumor volume)” value in series [5] (setting [7]) was 129.6 ± 45.8. The “Bodyweight of mice after administration (in words)” value in series [5] (mouse, in vivo) is reported as “decreased significantly”.

`CCN(CC)CC(=O)Nc1c(C)[nH]c(/C=C2\C(=O)Nc3cc(C(F)(F)F)ccc32)c1C` [Compound 24, N-{5-[6-trifluoromethyl-2-oxo-1,2-dihydro-indol-(3Z)-ylidenemethyl]-2,4-dimethyl-1H-pyrrol-3-yl}-2-(N,N-diethylamino)acetamide]: in series [1], the inhibition at 0.2 µg/mL turned out to be 98%, the inhibition at 1 µg/mL amounted to 100% and the inhibition at 5 µg/mL was found to be 100%. Further, the IC50 at 72 h in series [2] was > 30 µM. The compound also returned an IC50 at 72 h in series [3] of 3.56 µM. Besides, half-maximal inhibition in series [4] (IC50 at 72 h) was put at 8.89 µM. For the same compound, in series [5] (setting [6]), the Dead animal number is reported as 0/6, the inhibition in vivo at 80 mg/kg stood at 64.9%, the “d21 Wave ± SD” value is reported as 17.9 ± 0.58 and the “d21 RTV ± SD (relative tumor volume)” value is 2.52 ± 0.23. Moreover, in series [5], the “d0 Wave ± SD” value amounted to 18.6 ± 0.36. In addition, the “d21 Vave ± SD (average tumor volume)” value in series [5] (setting [7]) stood at 298.5 ± 55.8.

On to `CCN(CC)CCC(=O)Nc1c(C)[nH]c(/C=C2\C(=O)Nc3ccc(Cl)cc32)c1C` [Compound 2, N-{5-[5-chloro-2-oxo-1,2-dihydro-indol-(3Z)-ylidenemethyl]-2,4-dimethyl-1H-pyrrol-3-yl}-3-(N,N-diethylamino)propionamide], for which, in series [1], the inhibition at 0.2 µg/mL turned out to be 94%, the inhibition at 1 µg/mL was found to be 100% and the inhibition at 5 µg/mL worked out at 100%. In series [2], the 50% inhibitory concentration (IC50) at 72 h was > 30 µM. The 50% inhibitory concentration (IC50) at 72 h in series [3] was > 30 µM. The IC50 at 72 h in series [4] was > 30 µM. Also, in series [5] (setting [6]), the Dead animal number is 0/6, the inhibition in vivo at 80 mg/kg came to 63.8%, the “d21 Wave ± SD” value stood at 19.9 ± 0.68 and the “d21 Vave ± SD (average tumor volume)” value was determined as 300.3 ± 36.8. For the same compound, the “d21 RTV ± SD (relative tumor volume)” value in series [5] (setting [6]) was 2.60 ± 0.52. In addition, the “d0 Wave ± SD” value in series [5] was 18.8 ± 0.35.

In the case of `CCN1CCN(CCC(=O)Nc2c(C)[nH]c(/C=C3\C(=O)Nc4ccc(F)cc43)c2C)CC1` [Compound 10, N-{5-[5-fluoro-2-oxo-1,2-dihydro-indol-(3Z)-ylidenemethyl]-2,4-dimethyl-1H-pyrrol-3-yl}-3-(4-ethylpiperazin-1-yl)propionamide], in series [1], the inhibition at 0.2 µg/mL was 98%, the inhibition at 1 µg/mL turned out to be 100% and the inhibition at 5 µg/mL worked out at 100%. The 50% inhibitory concentration (IC50) at 72 h in series [2] was > 30 µM. The IC50 at 72 h in series [3] was > 30 µM. In addition, in series [4], the IC50 at 72 h is > 30 µM. For the same compound, in series [5] (setting [6]), the Dead animal number was 0/6, the inhibition in vivo at 80 mg/kg stood at 86.4%, the “d21 Wave ± SD” value is 18.9 ± 0.97 and the “d21 RTV ± SD (relative tumor volume)” value was 0.98 ± 0.34. In addition, in series [5], the “Activity of inhibiting HT-29 transplanted tumor in vivo (in words)” value is given as “inhibitory activity comparable to the positive control Sunitinib” and the “d0 Wave ± SD” value came to 18.7 ± 1.10. Further, in series [5] (setting [7]), the “d21 Vave ± SD (average tumor volume)” value turned out to be 112.8 ± 36.4.
